Values after ≈ are worked out from the molar mass of the structure shown. Read-outs that look alike come from different tables or passages of the source.
Assays:
Format in all cases: cell-based
Streptococcus agalactiae = experiment: MIC, 20-strain panel
Summary of the method: (§1)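 Broth microdilution per CLSI, 2-fold serial dilutions in Luria-Bertani medium with a 1:10000 inoculum from a growing subculture. Plates shaken at 37 °C for 16-18 h; MIC taken as lowest concentration showing no visible turbidity.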

E. coli JW5503 (deltolC) = experiment: MIC, 20-strain panel; settings: Escherichia coli
Summary of the method: as §1

Streptococcus pyogenes = experiment: MIC, 20-strain panel
Summary of the method: as §1

[1] = system: Klebsiella pneumoniae subsp. pneumoniae; experiment: MIC, 20-strain panel
Summary of the method: as §1

[2] = system: Staphylococcus epidermidis; experiment: MIC, 20-strain panel
Summary of the method: as §1

[3] = system: Salmonella enterica subsp. enterica typhimurium; experiment: MIC, 20-strain panel
Summary of the method: as §1

Shigella flexneri = experiment: MIC, 20-strain panel
Summary of the method: as §1

E. coli MG1655 = experiment: MIC, 20-strain panel; settings: Escherichia coli, read-out: MIC
Summary of the method: as §1

[4] = system: Staphylococcus aureus subsp. aureus; experiment: MIC, 20-strain panel; settings: read-out: MIC
Summary of the method: as §1

[5] = system: Staphylococcus saprophyticus subsp. saprophyticus; experiment: MIC, 20-strain panel
Summary of the method: as §1

Edwardsiella tarda = experiment: MIC, microdilution in 96-well plates
Summary of the method: as §1

E. coli BW25113 = experiment: MIC, microdilution in 96-well plates; settings: Escherichia coli, read-out: MIC
Summary of the method: as §1

[6] = Klebsiella pneumoniae subsp. pneumoniae
[7] = Salmonella enterica subsp. enterica Typhimurium
[8] = Staphylococcus aureus subsp. aureus

## Cc1ccc(S(=O)(=O)N[C@@H]2CCN(Cc3ccc(-c4ccccc4)cc3)C2)cn1 [Compound 174]
Streptococcus agalactiae
  MIC: > 8 µg/mL
E. coli JW5503 (deltolC); E. coli JW5503 (deltolC)
  MIC: > 8 µg/mL
Streptococcus pyogenes
  MIC: > 8 µg/mL
[1]; [6]
  MIC: > 8 µg/mL
[2]
  MIC: > 8 µg/mL
[3]; [7]
  MIC: > 8 µg/mL
Shigella flexneri
  MIC: > 8 µg/mL
E. coli MG1655; MG1655, E. coli MG1655
  MIC: > 8 µg/mL
[4]; [8]
  MIC: > 8 µg/mL
[5]
  MIC: > 8 µg/mL
Edwardsiella tarda
  MIC: > 8 µg/mL
E. coli BW25113; BW25113, E. coli BW25113
  MIC: > 8 µg/mL

## Cc1ccc(S(=O)(=O)N[C@@H]2CCN(Cc3ccc(OC4CC4)cc3)C2)cn1 [Compound 175]
Streptococcus agalactiae
  MIC: > 8 µg/mL
E. coli JW5503 (deltolC); E. coli JW5503 (deltolC)
  MIC: > 8 µg/mL
Streptococcus pyogenes
  MIC: > 8 µg/mL
[1]; [6]
  MIC: > 8 µg/mL
[2]
  MIC: > 8 µg/mL
[3]; [7]
  MIC: > 8 µg/mL
Shigella flexneri
  MIC: > 8 µg/mL
E. coli MG1655; MG1655, E. coli MG1655
  MIC: > 8 µg/mL
[4]; [8]
  MIC: > 8 µg/mL
[5]
  MIC: > 8 µg/mL
Edwardsiella tarda
  MIC: > 8 µg/mL
E. coli BW25113; BW25113, E. coli BW25113
  MIC: > 8 µg/mL

## CSc1ccc(CN2CC[C@@H](NS(=O)(=O)c3cccc(OC(F)(F)F)c3)C2)cc1 [Compound 176]
Streptococcus agalactiae
  MIC: > 8 µg/mL
E. coli JW5503 (deltolC); E. coli JW5503 (deltolC)
  MIC: 8 µg/mL (≈ 17.9 µM)
Streptococcus pyogenes
  MIC: > 8 µg/mL
[1]; [6]
  MIC: > 8 µg/mL
[2]
  MIC: > 8 µg/mL
[3]; [7]
  MIC: > 8 µg/mL
Shigella flexneri
  MIC: > 8 µg/mL
E. coli MG1655; MG1655, E. coli MG1655
  MIC: > 8 µg/mL
[4]; [8]
  MIC: > 8 µg/mL
[5]
  MIC: > 8 µg/mL
Edwardsiella tarda
  MIC: > 8 µg/mL
E. coli BW25113; BW25113, E. coli BW25113
  MIC: > 8 µg/mL

## O=S(=O)(N[C@@H]1CCN(Cc2ccc(OC3CCC3)cc2)C1)c1cccc(OC(F)(F)F)c1 [Compound 177]
Streptococcus agalactiae
  MIC: > 8 µg/mL
E. coli JW5503 (deltolC); E. coli JW5503 (deltolC)
  MIC: 2 µg/mL (≈ 4.25 µM)
Streptococcus pyogenes
  MIC: > 8 µg/mL
[1]; [6]
  MIC: > 8 µg/mL
[2]
  MIC: > 8 µg/mL
[3]; [7]
  MIC: > 8 µg/mL
Shigella flexneri
  MIC: > 8 µg/mL
E. coli MG1655; MG1655, E. coli MG1655
  MIC: > 8 µg/mL
[4]; [8]
  MIC: > 8 µg/mL
[5]
  MIC: > 8 µg/mL
Edwardsiella tarda
  MIC: > 8 µg/mL
E. coli BW25113; BW25113, E. coli BW25113
  MIC: > 8 µg/mL

## O=S(=O)(N[C@@H]1CCN(Cc2ccc(-c3ccccc3)cc2)C1)c1cnc2ccccc2c1 [Compound 178]
Streptococcus agalactiae
  MIC: > 8 µg/mL
E. coli JW5503 (deltolC); E. coli JW5503 (deltolC)
  MIC: > 8 µg/mL
Streptococcus pyogenes
  MIC: > 8 µg/mL
[1]; [6]
  MIC: > 8 µg/mL
[2]
  MIC: > 8 µg/mL
[3]; [7]
  MIC: > 8 µg/mL
Shigella flexneri
  MIC: > 8 µg/mL
E. coli MG1655; MG1655, E. coli MG1655
  MIC: > 8 µg/mL
[4]; [8]
  MIC: > 8 µg/mL
[5]
  MIC: > 8 µg/mL
Edwardsiella tarda
  MIC: > 8 µg/mL
E. coli BW25113; BW25113, E. coli BW25113
  MIC: > 8 µg/mL

## CC(C)Oc1ccc(CN2CC[C@@H](NS(=O)(=O)c3ccc4c(c3)CC(=O)N4C)C2)cc1 [Compound 179]
Streptococcus agalactiae
  MIC: > 8 µg/mL
E. coli JW5503 (deltolC); E. coli JW5503 (deltolC)
  MIC: > 8 µg/mL
Streptococcus pyogenes
  MIC: > 8 µg/mL
[1]; [6]
  MIC: > 8 µg/mL
[2]
  MIC: > 8 µg/mL
[3]; [7]
  MIC: > 8 µg/mL
Shigella flexneri
  MIC: > 8 µg/mL
E. coli MG1655; MG1655, E. coli MG1655
  MIC: > 8 µg/mL
[4]; [8]
  MIC: > 8 µg/mL
[5]
  MIC: > 8 µg/mL
Edwardsiella tarda
  MIC: > 8 µg/mL
E. coli BW25113; BW25113, E. coli BW25113
  MIC: > 8 µg/mL

## CN1C(=O)Cc2cc(S(=O)(=O)N[C@@H]3CCN(Cc4ccc(-c5ccccc5)cc4)C3)ccc21 [Compound 180]
Streptococcus agalactiae
  MIC: > 8 µg/mL
E. coli JW5503 (deltolC); E. coli JW5503 (deltolC)
  MIC: > 8 µg/mL
Streptococcus pyogenes
  MIC: > 8 µg/mL
[1]; [6]
  MIC: > 8 µg/mL
[2]
  MIC: > 8 µg/mL
[3]; [7]
  MIC: > 8 µg/mL
Shigella flexneri
  MIC: > 8 µg/mL
E. coli MG1655; MG1655, E. coli MG1655
  MIC: > 8 µg/mL
[4]; [8]
  MIC: > 8 µg/mL
[5]
  MIC: > 8 µg/mL
Edwardsiella tarda
  MIC: > 8 µg/mL
E. coli BW25113; BW25113, E. coli BW25113
  MIC: > 8 µg/mL

## CN1C(=O)Cc2cc(S(=O)(=O)N[C@@H]3CCN(Cc4ccc(OC5CC5)cc4)C3)ccc21 [Compound 181]
Streptococcus agalactiae
  MIC: > 8 µg/mL
E. coli JW5503 (deltolC); E. coli JW5503 (deltolC)
  MIC: > 8 µg/mL
Streptococcus pyogenes
  MIC: > 8 µg/mL
[1]; [6]
  MIC: > 8 µg/mL
[2]
  MIC: > 8 µg/mL
[3]; [7]
  MIC: > 8 µg/mL
Shigella flexneri
  MIC: > 8 µg/mL
E. coli MG1655; MG1655, E. coli MG1655
  MIC: > 8 µg/mL
[4]; [8]
  MIC: > 8 µg/mL
[5]
  MIC: > 8 µg/mL
Edwardsiella tarda
  MIC: > 8 µg/mL
E. coli BW25113; BW25113, E. coli BW25113
  MIC: > 8 µg/mL

## Cc1ccc(C(F)(F)F)cc1S(=O)(=O)N[C@@H]1CCN(Cc2ccc(-c3ccccc3)cc2)C1 [Compound 182]
Streptococcus agalactiae
  MIC: > 8 µg/mL
E. coli JW5503 (deltolC); C: E. coli JW5503 (deltolC)
  MIC: 4 µg/mL (≈ 8.43 µM)
Streptococcus pyogenes
  MIC: ~8 µg/mL (≈ 16.9 µM)
[1]; E: Klebsiella pneumoniae subsp. pneumoniae
  MIC: > 8 µg/mL
[2]
  MIC: 4 µg/mL (≈ 8.43 µM)
[3]; F: Salmonella enterica subsp. enterica Typhimurium
  MIC: > 8 µg/mL
Shigella flexneri; G: Shigella flexneri
  MIC: > 8 µg/mL
E. coli MG1655; MG1655, A: E. coli MG1655
  MIC: > 8 µg/mL
[4]; H: Staphylococcus aureus subsp. aureus
  MIC: > 8 µg/mL
[5]
  MIC: > 8 µg/mL
Edwardsiella tarda; D: Edwardsiella tarda
  MIC: > 8 µg/mL
E. coli BW25113; BW25113, B: E. coli BW25113
  MIC: > 8 µg/mL

## Cc1ccc(C(F)(F)F)cc1S(=O)(=O)N[C@@H]1CCN(Cc2ccc(OC(C)C)cc2)C1 [Compound 183]
Streptococcus agalactiae
  MIC: > 8 µg/mL
E. coli JW5503 (deltolC); E. coli JW5503 (deltolC)
  MIC: 0.5 µg/mL (≈ 1.1 µM)
Streptococcus pyogenes
  MIC: > 8 µg/mL
[1]; [6]
  MIC: > 8 µg/mL
[2]
  MIC: > 8 µg/mL
[3]; [7]
  MIC: 8 µg/mL (≈ 17.5 µM)
Shigella flexneri
  MIC: > 8 µg/mL
E. coli MG1655; MG1655, E. coli MG1655
  MIC: > 8 µg/mL
[4]; [8]
  MIC: > 8 µg/mL
[5]
  MIC: > 8 µg/mL
Edwardsiella tarda
  MIC: > 8 µg/mL
E. coli BW25113; BW25113, E. coli BW25113
  MIC: > 8 µg/mL

Reference: US10253039B2, “Inhibitors of bacterial DNA gyrase with efficacy against gram-negative bacteria” (priority 2014, dated 2019)
